Mutagenic call data for 6 compounds are collected here from PubChem BioAssay AID1259407 (Chemical Carcinogenesis Research Information System (CCRIS), 2018).

Calls of active or inactive are those of the source. No rule for the calls is given here.

The data set concerns CCRIS mutagenicity, Ames/micronucleus/aberration tests. Put plainly: CCRIS mutagenicity studies.
Setting [1] is: Test System: AMES SALMONELLA TYPHIMURIUM, Strain/Indicator: TA98, Metabolic Activation: NONE, Method: STANDARD PLATE.
[2] abbreviates: Test System: AMES SALMONELLA TYPHIMURIUM, Strain/Indicator: TA100, Metabolic Activation: NONE, Method: STANDARD PLATE.
The mark [3] stands for this setting: Test System: AMES SALMONELLA TYPHIMURIUM, Strain/Indicator: TA98, Metabolic Activation: RAT, LIVER, S-9, AROCLOR 1254, Method: STANDARD PLATE.
Where [4] appears, read: Test System: AMES SALMONELLA TYPHIMURIUM, Strain/Indicator: TA100, Metabolic Activation: RAT, LIVER, S-9, AROCLOR 1254, Method: STANDARD PLATE.
The mark [5] stands for this setting: Test System: AMES SALMONELLA TYPHIMURIUM, Strain/Indicator: TA98, Metabolic Activation: NONE, Method: PREINCUBATION
[6] abbreviates: Test System: AMES SALMONELLA TYPHIMURIUM, Strain/Indicator: TA100, Metabolic Activation: NONE, Method: PREINCUBATION

In the case of `CC1(C)[C@H](C=C(Cl)Cl)[C@H]1C(=O)OCc1cccc(Oc2ccccc2)c1`, the mutagenic call was “inactive; negative” (Test System: AMES SALMONELLA TYPHIMURIUM, Strain/Indicator: TA97, Metabolic Activation: NONE, Method: STANDARD PLATE); “inactive; negative” (Test System: AMES SALMONELLA TYPHIMURIUM, Strain/Indicator: TA97, Metabolic Activation: RAT, LIVER, S-9, PHENOBARBITONE, Method: STANDARD PLATE); “inactive; negative” under setting [1]; “inactive; negative” (Test System: AMES SALMONELLA TYPHIMURIUM, Strain/Indicator: TA98, Metabolic Activation: RAT, LIVER, S-9, PHENOBARBITONE, Method: STANDARD PLATE); “inactive; negative” under setting [2]; “inactive; negative” (Test System: AMES SALMONELLA TYPHIMURIUM, Strain/Indicator: TA100, Metabolic Activation: RAT, LIVER, S-9, PHENOBARBITONE, Method: STANDARD PLATE). The mutagenic call reads like this: (Test System: AMES SALMONELLA TYPHIMURIUM, Strain/Indicator: TA104, Metabolic Activation: NONE, Method: STANDARD PLATE) “inactive; negative”; (Test System: AMES SALMONELLA TYPHIMURIUM, Strain/Indicator: TA104, Metabolic Activation: RAT, LIVER, S-9, PHENOBARBITONE, Method: STANDARD PLATE) “inactive; negative”.
Turning to `CCOC(=O)Nc1ccc(SC[C@@H]2CO[C@@](Cn3ccnc3)(c3ccc(Cl)cc3Cl)O2)cc1`, the mutagenic call (End Point: IN VIVO MICRONUCLEUS, Test System: BLOOD ERYTHROCYTES, Species: MOUSE, Strain/Sex: CD-1/MALE, Route: ORAL) is “active; positive (at 48 and 72 hr at higher dose)”.
Regarding `C[C@]12CC[C@H](O)C[C@@H]1CC[C@@H]1[C@@H]2CC[C@]2(C)NC(=O)CC[C@@H]12`, the mutagenic call was “inactive; negative” under setting [1]; “inactive; negative” under setting [3]; “inactive; negative” under setting [2]; “inactive; negative” under setting [4]; “inactive; negative” (Test System: AMES SALMONELLA TYPHIMURIUM, Strain/Indicator: TA1535, Metabolic Activation: NONE, Method: STANDARD PLATE); “inactive; negative” (Test System: AMES SALMONELLA TYPHIMURIUM, Strain/Indicator: TA1535, Metabolic Activation: RAT, LIVER, S-9, AROCLOR 1254, Method: STANDARD PLATE). The mutagenic call runs as follows: (Test System: AMES SALMONELLA TYPHIMURIUM, Strain/Indicator: TA1537, Metabolic Activation: NONE, Method: STANDARD PLATE) “inactive; negative”; (Test System: AMES SALMONELLA TYPHIMURIUM, Strain/Indicator: TA1537, Metabolic Activation: RAT, LIVER, S-9, AROCLOR 1254, Method: STANDARD PLATE) “inactive; negative”.
Regarding `NC(=O)/N=N/C(N)=O`, the mutagenic call is “inactive; negative” (Test System: AMES SALMONELLA TYPHIMURIUM, Strain/Indicator: TA98, Metabolic Activation: HAMSTER, LIVER, S-9, AROCLOR 1254, Method: STANDARD PLATE); “inactive; negative” under setting [1]; “inactive; negative” under setting [3]; “active; positive” (Test System: AMES SALMONELLA TYPHIMURIUM, Strain/Indicator: TA100, Metabolic Activation: HAMSTER, LIVER, S-9, AROCLOR 1254, Method: STANDARD PLATE); “active; positive” under setting [2]; “active; positive” under setting [4]. The mutagenic call is “inactive; negative. reevaluation of results: inconclusive” (Test System: MOUSE LYMPHOMA, Strain/Indicator: L5178Y (TK+/TK-), Metabolic Activation: NONE, Method: SUSPENSION/PLATE) and “inactive; negative. reevaluation of results: negative” (Test System: MOUSE LYMPHOMA, Strain/Indicator: L5178Y (TK+/TK-), Metabolic Activation: RAT, LIVER, S-9, AROCLOR 1254, Method: SUSPENSION/PLATE).
For `Cc1ccc([N+](=O)[O-])c(C)c1`, the mutagenic call is “inactive; negative” under setting [5]; “inactive; negative” (Test System: AMES SALMONELLA TYPHIMURIUM, Strain/Indicator: TA98, Metabolic Activation: RAT, LIVER, S-9, KANECHLOR 500, Method: PREINCUBATION); “inactive; negative” under setting [6].
With `O=[N+]([O-])C(Br)(Br)Br`, the mutagenic call reads like this: under setting [5], “inactive; negative”; (Test System: AMES SALMONELLA TYPHIMURIUM, Strain/Indicator: TA100, Metabolic Activation: HAMSTER, LIVER, S-9, AROCLOR 1254 (5%), Method: PREINCUBATION) “inactive; negative”; (Test System: AMES SALMONELLA TYPHIMURIUM, Strain/Indicator: TA100, Metabolic Activation: HAMSTER, LIVER, S-9, AROCLOR 1254 (10 OR 30%), Method: PREINCUBATION) “inactive; negative”; (Test System: AMES SALMONELLA TYPHIMURIUM, Strain/Indicator: TA100, Metabolic Activation: HAMSTER, LIVER, S-9, AROCLOR 1254 (30%), Method: PREINCUBATION) “active; positive”; under setting [6], “inactive; negative”; (Test System: AMES SALMONELLA TYPHIMURIUM, Strain/Indicator: TA100, Metabolic Activation: RAT, LIVER, S-9, AROCLOR 1254 (5%), Method: PREINCUBATION) “inactive; negative”. Further, the mutagenic call is, setting by setting: (Test System: AMES SALMONELLA TYPHIMURIUM, Strain/Indicator: TA100, Metabolic Activation: RAT, LIVER, S-9, AROCLOR 1254 (10%), Method: PREINCUBATION) “inactive; negative”; (Test System: AMES SALMONELLA TYPHIMURIUM, Strain/Indicator: TA1535, Metabolic Activation: RAT, LIVER, S-9, AROCLOR 1254 (5%), Method: PREINCUBATION) “inactive; negative”; (Test System: Ames Salmonella typhimurium, Strain/Indicator: RSJ100, Metabolic Activation: None, Method: Standard plate) “inactive; negative”; (Test System: Ames Salmonella typhimurium, Strain/Indicator: RSJ 100, Metabolic Activation: Rat, Liver, S-9, Aroclor, Method: Standard plate) “inactive; negative”; (Test System: Ames Salmonella typhimurium, Strain/Indicator: RSJ100, Metabolic Activation: Rat, Liver, S-9, Aroclor, Method: Standard plate) “inactive; negative”; (Test System: Ames Salmonella typhimurium, Strain/Indicator: TA98, Metabolic Activation: None, Method: Standard plate) “inactive; negative”. The mutagenic call is, setting by setting: (Test System: Ames Salmonella typhimurium, Strain/Indicator: TA98, Metabolic Activation: Rat, Liver, S-9, Aroclor, Method: Standard plate) “inactive; negative”; (Test System: Ames Salmonella typhimurium, Strain/Indicator: TA100, Metabolic Activation: None, Method: Standard plate) “inactive; negative”; (Test System: Ames Salmonella typhimurium, Strain/Indicator: TA100, Metabolic Activation: Rat, Liver, S-9, Aroclor, Method: Standard plate) “inactive; negative”; (Test System: Ames Salmonella typhimurium, Strain/Indicator: TA104, Metabolic Activation: None, Method: Standard plate) “inactive; negative”; (Test System: Ames Salmonella typhimurium, Strain/Indicator: TA104, Metabolic Activation: Rat, Liver, S-9, Aroclor, Method: Standard plate) “inactive; negative”; (Test System: Ames Salmonella typhimurium, Strain/Indicator: TPT100, Metabolic Activation: None, Method: Standard plate) “inactive; negative”.
